# Reference: ChEMBL document CHEMBL4270589, “Novel coumarin-pyrazole carboxamide derivatives as potential topoisomerase II inhibitors: Design, synthesis and antibacterial activity” (Eur J Med Chem, 2018)
# What was measured:
# Type in all cases: functional
# Staphylococcus aureus = assay: Antibacterial activity against Staphylococcus aureus ATCC 12600 after 24 hrs by agar dilution method; settings: ATCC 12600, 24 h
# Salmonella enterica = assay: Antibacterial activity against Salmonella enterica ATCC 9184 after 24 hrs by agar dilution method; settings: ATCC 9184, 24 h
# Listeria monocytogenes = assay: Antibacterial activity against Listeria monocytogenes ATCC 15313 after 24 hrs by agar dilution method; settings: ATCC 15313, 24 h
# Escherichia coli = assay: Antibacterial activity against Escherichia coli ATCC 25922 after 24 hrs by agar dilution method; settings: ATCC 25922, 24 h
Structure (SMILES),MIC (Staphylococcus aureus) [µg/mL],MIC (Salmonella enterica) [µg/mL],MIC (Listeria monocytogenes) [µg/mL],MIC (Escherichia coli) [µg/mL]
CCOC(=O)c1cnn(-c2ccc(Cl)cc2)c1NC(=O)c1cc2cc(Br)ccc2oc1=O,4,32,1,8
O=C(O)c1cnn(-c2ccc(Cl)cc2)c1NC(=O)c1cc2cc([N+](=O)[O-])ccc2oc1=O,32,32,32,32
N#Cc1cnn(-c2ccccc2)c1NC(=O)c1cc2ccccc2oc1=O,16,32,64,64
Cc1ccc(-n2ncc(C(=O)O)c2NC(=O)c2cc3cc([N+](=O)[O-])ccc3oc2=O)cc1,> 128,64,> 128,4
Cc1ccc2oc(=O)c(C(=O)Nc3c(C(=O)O)cnn3-c3ccccc3)cc2c1,64,32,32,32
N#Cc1cnn(-c2ccc(F)cc2)c1NC(=O)c1cc2cc([N+](=O)[O-])ccc2oc1=O,> 128,> 128,> 128,> 128
Cc1ccc(-n2ncc(C#N)c2NC(=O)c2cc3cc(Cl)ccc3oc2=O)cc1,> 128,> 128,> 128,> 128
Cc1ccc(-n2ncc(C#N)c2NC(=O)c2cc3cc(Br)ccc3oc2=O)cc1,> 128,64,8,> 128
N#Cc1cnn(-c2ccc(Cl)cc2)c1NC(=O)c1cc2cc([N+](=O)[O-])ccc2oc1=O,16,0.125,8,4
O=C(O)c1cnn(-c2ccc(F)cc2)c1NC(=O)c1cc2ccccc2oc1=O,> 128,> 128,> 128,> 128
O=C(O)c1cnn(-c2ccccc2)c1NC(=O)c1cc2ccccc2oc1=O,> 128,> 128,32,> 128
CCOC(=O)c1cnn(-c2ccc(C)cc2)c1NC(=O)c1cc2cc(Cl)ccc2oc1=O,4,> 128,2,64
CCOC(=O)c1cnn(-c2ccc(Cl)cc2)c1NC(=O)c1cc2cc([N+](=O)[O-])ccc2oc1=O,32,64,32,64
CCOC(=O)c1cnn(-c2ccc(C)cc2)c1NC(=O)c1cc2ccccc2oc1=O,> 128,> 128,32,> 128
CCN(CC)c1ccc2cc(C(=O)Nc3c(C#N)cnn3-c3ccc(C)cc3)c(=O)oc2c1,> 128,> 128,> 128,> 128
Cc1ccc(-n2ncc(C#N)c2NC(=O)c2cc3ccccc3oc2=O)cc1,8,> 128,> 128,32
N#Cc1cnn(-c2ccc(F)cc2)c1NC(=O)c1cc2ccccc2oc1=O,> 128,> 128,64,> 128
CCOC(=O)c1cnn(-c2ccc(F)cc2)c1NC(=O)c1cc2cc([N+](=O)[O-])ccc2oc1=O,32,> 128,8,64
CCOC(=O)c1cnn(-c2ccc(Cl)cc2)c1NC(=O)c1cc2ccccc2oc1=O,16,16,64,64
CCOC(=O)c1cnn(-c2ccc(Cl)cc2)c1NC(=O)c1cc2cc(C)ccc2oc1=O,8,8,16,4
O=C(O)c1cnn(-c2ccc(Cl)cc2)c1NC(=O)c1cc2cc(Br)ccc2oc1=O,32,32,32,4
CCOC(=O)c1cnn(-c2ccc(Cl)cc2)c1NC(=O)c1cc2cc(Cl)ccc2oc1=O,2,32,32,4
O=C(O)c1cnn(-c2ccc(F)cc2)c1NC(=O)c1cc2cc([N+](=O)[O-])ccc2oc1=O,> 128,> 128,> 128,> 128
CCOC(=O)c1cnn(-c2ccccc2)c1NC(=O)c1cc2ccccc2oc1=O,16,2,64,64
CCN(CC)c1ccc2cc(C(=O)Nc3c(C#N)cnn3-c3ccccc3)c(=O)oc2c1,4,32,16,32
N#Cc1cnn(-c2ccc(Cl)cc2)c1NC(=O)c1cc2ccccc2oc1=O,4,16,32,32
N#Cc1cnn(-c2ccc(Cl)cc2)c1NC(=O)c1cc2cc(Cl)ccc2oc1=O,4,64,8,4
CCOC(=O)c1cnn(-c2ccc(C)cc2)c1NC(=O)c1cc2ccc(N(CC)CC)cc2oc1=O,> 128,> 128,> 128,> 128
